Measured values taken from patent publication US20060258639A1, “Therapeutic combinations for the treatment or prevention of psychotic disorders” (Wyeth, priority 2005, published 2006).

Experiments:
Type in all cases: in vivo
[1] = test system: apomorphine-induced climbing; test: apomorphine-induced climbing in mice, Compound 1 alone or with haloperidol (Experiment 1); conditions: for ED50: Mus musculus, sc, apomorphine 1 mg/kg s.c., read-out: ED50 for apomorphine block
Experimental: (§1) Using (7-(2,6-dichlorophenyl)-5-fluoro-2,3-dihydrobenzofuran-2-yl)methanamine (Compound 1) as an example, the present Example describes two experiments in which a compound of formula I, was administered in combination with either a typical (exemplified by haloperidol) or atypical (exemplified by clozapine). The combination reduced apomorphine-induced climbing without side effects.
(§2) Mice were acclimated to the climbing cages for at least 1 hour and then dosed with either the vehicle or a dose of haloperidol or clozapine followed by a dose of either vehicle or a dose of Compound 1. Thirty minutes after dosing all mice received 1 mg/kg s.c. apomorphine and returned to the climbing cages. Five minutes after apomorphine the mice were observed and scored for climbing and stereotypy every 5 minutes for the 30 minute test session.

[2] = test system: catalepsy induced by haloperidol; test: catalepsy (bar test), extra-pyramidal side effect liability, Compound 1 with haloperidol; conditions: Compound 1 3 mg/kg with haloperidol 0.1 & 0.17 mg/kg; 30, 60, 90 and 120 minutes after dosing; mice
Experimental: Using (7-(2,6-dichlorophenyl)-5-fluoro-2,3-dihydrobenzofuran-2-yl)methanamine (Compound 1) as an example, the present Example describes an experiment in which a compound of formula I was administered in combination with haloperidol to assess extra-pyramidal side effect liability, as represented by cataleptic behavior. [table] Mice were dosed with either the vehicle or a dose of haloperidol followed by a dose of either vehicle or a dose of Compound 1. Thirty, 60, 90 and 120 minutes after dosing, the forelegs are draped over a thin horizontal rod 1.75″ high. The number of seconds up to 60 sec for which the mouse remains on the bar is recorded at each test point and presented as the percent of maximum possible response (60 sec).

[3] = test system: apomorphine-induced climbing; test: apomorphine-induced climbing in mice, Compound 1 alone or with clozapine (Experiment 2); conditions: for ED50: Mus musculus, sc, apomorphine 1 mg/kg s.c., read-out: ED50 for apomorphine block
Experimental: as §1, §2

[4] = Compound 1 0.3, 1 & 3 mg/kg co-administered with clozapine 3 & 5.4 mg/kg

## NCC1Cc2cc(F)cc(-c3c(Cl)cccc3Cl)c2O1 (centres unmarked) [Compound 1, (7-(2,6-dichlorophenyl)-5-fluoro-2,3-dihydrobenzofuran-2-yl)methanamine]
[1]; Compound 1 0.3, 1 & 3 mg/kg co-administered with haloperidol 0.17 mg/kg
  block of apomorphine induced climbing versus either compound alone: greater block of apomorphine induced climbing
[1]; Compound 1 0.3, 1 & 3 mg/kg co-administered with haloperidol 0.17 mg/kg, relative to haloperidol alone
  effect on stereotypy: no effect on stereotypy
[1]; Experiment 1, Compound 1 alone
  ED50: 1.81 mg/kg
[1]; Experiment 1, co-administered with 0.1 mg/kg of haloperidol
  ED50: 1.49 mg/kg
[1]; Experiment 1, co-administered with 0.17 mg/kg of haloperidol
  ED50: 0.534 mg/kg
[2]
  catalepsy, percent of maximum possible response (60 sec): up to 45 % of maximum catalepsy
[3]; [4]
  block of apomorphine induced climbing versus either compound alone: greater block of apomorphine induced climbing
  effect on stereotypy: no effect on stereotypy
[3]; Experiment 2, Compound 1 alone
  ED50: 7.15 mg/kg
[3]; Experiment 2, co-administered with 3 mg/kg of clozapine
  ED50: 2.48 mg/kg
[3]; Experiment 2, co-administered with 5.4 mg/kg of clozapine
  ED50: 1.67 mg/kg
